These results are taken from patent publication US8192949B2, “Microaggregates including endothelial cells” (priority 2005, dated 2012).

For experiment [1], the system named is tumor cells in neuroendocrine (pulmonary carcinoid) tumor microclusters. In words: In situ microcapillary viability assay (ISMCVA), fast green/H&E dye exclusion on tumor microclusters. Type of experiment: cell-based, human. Conditions: microclusters cultured for 96 hours in presence of bevacizumab; FIGS. 3B and 4B. On the procedure: (§1) Solid tumors are minced to pieces smaller than 1 mm (small enough to be aspirated into a standard disposable 10 ml pipette) with high quality curved surgical scissors. Medium in which said tumors may have been transported is reserved, along with the supernatant from the tissue mince. Scissor-minced tumor pieces are digested with collagenase/DNase in RPMI-1640 containing antibiotics and 10% fetal calf serum. Specimens are digested in 50 ml disposable polypropylene centrifuge tubes, assisted by gentle mixing with plastic-coated, magnetic stirring bars over a stirring plate. Specimens are thusly mixed until complete gross digestion has taken place—typically about 2-3 hours for a 1-3 gram specimen. […]
(§2) Viable microaggregates are enriched from medium containing a mixture of microclusters that exist in the minced, digested tissue along with single cells, normal cells, red blood cells, dead cells, and debris by means of “quickspins.” Quickspins consist of repeated very brief centrifugations at 50-500×g, in which the centrifuge tube is first mixed by moderate hand-shaking, placed in a standard, room temperature, preparatory centrifuge, and then accelerated to the desired speed (determined for each centrifuge by empiric trials) and then immediately turned off once the centrifuge has reached the desired speed and then allowed to coast to a stop. […]

In experiment [2] the test system is capillary-associated cells (mostly endothelial cells) in neuroendocrine (pulmonary carcinoid) tumor microclusters. The experiment is described as above. The format is cell-based, human. Particulars: microclusters cultured for 96 hours in presence of bevacizumab; FIGS. 3B and 4B. On the procedure:
as §1, §2

Regarding bevacizumab, the “viability of tumor cells (fast green / H/E staining)” value in experiment [1] is on record as “tumor cells remain viable”. Besides, the “viability of capillary-associated cells (fast green staining)” value in experiment [2] is recorded as “most capillary-associated cells are dead”.
